{"source": "ChEMBL document CHEMBL1148172", "about": "“A New Diterpene from a Soft Coral, Sinularia dissecta” (J Nat Prod, 1993)", "biological_target": "T1, Acetylcholinesterase (Rattus norvegicus, UniProt P37136)", "T1 sequence (P37136 whole entry)": "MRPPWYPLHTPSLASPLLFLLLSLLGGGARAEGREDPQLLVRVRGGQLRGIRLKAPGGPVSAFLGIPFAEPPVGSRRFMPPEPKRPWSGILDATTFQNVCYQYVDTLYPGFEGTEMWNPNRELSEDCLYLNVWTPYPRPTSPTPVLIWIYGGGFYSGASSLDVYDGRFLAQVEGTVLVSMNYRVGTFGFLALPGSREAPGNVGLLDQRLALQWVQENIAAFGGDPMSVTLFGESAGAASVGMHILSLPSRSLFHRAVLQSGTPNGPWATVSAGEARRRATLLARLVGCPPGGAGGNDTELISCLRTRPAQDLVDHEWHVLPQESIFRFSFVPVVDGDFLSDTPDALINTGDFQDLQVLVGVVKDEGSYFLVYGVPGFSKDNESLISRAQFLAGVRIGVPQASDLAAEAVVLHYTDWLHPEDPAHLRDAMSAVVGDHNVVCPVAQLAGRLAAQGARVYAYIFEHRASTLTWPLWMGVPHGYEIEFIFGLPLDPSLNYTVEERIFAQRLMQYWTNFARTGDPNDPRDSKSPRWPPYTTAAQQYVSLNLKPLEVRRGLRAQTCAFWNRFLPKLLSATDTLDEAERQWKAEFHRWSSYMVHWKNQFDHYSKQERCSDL", "experiment": "Inhibition of Wistar rat brain AChE", "conditions": "read-out: I50", "data": [{"compound": "C=C(C)[C@H]1C/C=C(/C(=O)OC)C(O)C(=O)C[C@@](C)(O)CC2=CC(C(=O)OC)=C(C1)O2", "note": "(stereo partly specified)", "values": [{"measurement": "IC50", "result": 63, "unit": "µM"}]}]}
